Results reported in paper PMC10272180, “Ancient medicinal plant rosemary contains a highly efficacious and isoform-selective KCNQ potassium channel opener” (Communications Biology, 2023).

Tests used:
[1] = target: KCNQ3* (KCNQ3-A315T) (Homo sapiens, UniProt O43525, A315T); assay: TEVC of KCNQ3* homomers expressed in Xenopus laevis oocytes; assay type: cell-based
[2] = target: T1, KCNQ3/5 (Homo sapiens, UniProt O43525+Q9NR82); assay: TEVC of KCNQ3/5 heteromers expressed in Xenopus laevis oocytes; assay type: cell-based; conditions: 5 µM each substance
T1 construct: expressed in transfected cells; host or cells: Xenopus laevis oocytes co-injected with cRNAs
Excerpt: (§1) We generated cRNA transcripts encoding human KCNQ1, 2, 3, and 5 (wild-type and mutant) by in vitro transcription using the mMessage mMachine kit (Thermo Fisher Scientific, Waltham, MA, USA) according to manufacturer’s instructions, after vector linearization, from cDNA sub-cloned into expression vectors (pTLNx and pXOOM) incorporating Xenopus laevis β-globin 5’ and 3’ UTRs flanking the coding region to enhance translation and cRNA stability. Mutant KCNQ cDNAs were generated by Genscript (Piscataway, NJ, USA) and cRNAs made as above. We injected defolliculated stage V and VI Xenopus laevis oocytes (Xenoocyte, Dexter, MI, USA) with KCNQ cRNAs (2–10 ng) and incubated the oocytes at 16 °C in ND96 oocyte storage solution containing penicillin and streptomycin, with daily washing, for 2–4 days prior to two-electrode voltage-clamp (TEVC) recording.
(§2) We performed TEVC at room temperature using an OC-725C amplifier (Warner Instruments, Hamden, CT, USA) and pClamp10 software (Molecular Devices, Sunnyvale, CA, USA) 2–4 days after cRNA injection. We placed oocytes in a small-volume oocyte bath (Warner) and viewed them with a dissection microscope for cellular electrophysiology. We sourced chemicals from Sigma-Aldrich (St. Louis, MO, USA) and Combi-Blocks (San Diego, CA, USA). We studied effects of Salvia rosmarinus extracts and of compounds, solubilized directly in bath solution (in mM): 96 NaCl, 4 KCl, 1 MgCl2, 1 CaCl2, 10 HEPES (pH 7.6). We introduced extracts or compounds into the oocyte recording bath by gravity perfusion at a constant flow of 1 ml per minute for 3 min prior to recording. Pipettes were of 1-2 MΩ resistance when filled with 3 M KCl. […] We analyzed data using Clampfit (Molecular Devices) and Graphpad Prism software (GraphPad, San Diego, CA, USA), stating values as mean ± SEM. We plotted raw or normalized tail currents versus prepulse voltage and fitted with a single Boltzmann function:1 g=(A1−A2)/1+exp[V1/2−V/Vs]y+A2 where g is the normalized tail conductance, A1 is the initial value at -∞, A2 is the final value at +∞, V1/2 is the half-maximal voltage of activation and Vs the slope factor. We fitted activation and deactivation kinetics with single exponential functions.

[3] = Solubility limit for testing in bath solution; assay type: physicochemical
Excerpt: We performed TEVC at room temperature using an OC-725C amplifier (Warner Instruments, Hamden, CT, USA) and pClamp10 software (Molecular Devices, Sunnyvale, CA, USA) 2–4 days after cRNA injection. We placed oocytes in a small-volume oocyte bath (Warner) and viewed them with a dissection microscope for cellular electrophysiology. We sourced chemicals from Sigma-Aldrich (St. Louis, MO, USA) and Combi-Blocks (San Diego, CA, USA). We studied effects of Salvia rosmarinus extracts and of compounds, solubilized directly in bath solution (in mM): 96 NaCl, 4 KCl, 1 MgCl2, 1 CaCl2, 10 HEPES (pH 7.6). We introduced extracts or compounds into the oocyte recording bath by gravity perfusion at a constant flow of 1 ml per minute for 3 min prior to recording. Pipettes were of 1-2 MΩ resistance when filled with 3 M KCl. We recorded currents in response to voltage pulses between −120 mV and +40 mV at 10 mV intervals from a holding potential of −80 mV, to yield current-voltage relationships and examine activation kinetics. We analyzed data using Clampfit (Molecular Devices) and Graphpad Prism software (GraphPad, San Diego, CA, USA), stating values as mean ± SEM. We plotted raw or normalized tail currents versus prepulse voltage and fitted with a single Boltzmann function:1 g=(A1−A2)/1+exp[V1/2−V/Vs]y+A2 where g is the normalized tail conductance, A1 is the initial value at -∞, A2 is the final value at +∞, V1/2 is the half-maximal voltage of activation and Vs the slope factor. We fitted activation and deactivation kinetics with single exponential functions.

[4] = target: T2, KCNQ2/3 (Homo sapiens, UniProt O43525+O43526); assay: TEVC of KCNQ2/3 heteromers expressed in Xenopus laevis oocytes; assay type: cell-based
T2 construct: expressed in transfected cells; host or cells: Xenopus laevis oocytes co-injected with cRNAs
Excerpt: as §1
as §2, with “We” for “We performed TEVC at room temperature using an OC-725C amplifier (Warner Instruments, Hamden, CT, USA) and pClamp10 software (Molecular Devices, Sunnyvale, CA, USA) 2–4 days after cRNA injection. We”

[5] = target: KCNQ2 (Homo sapiens, UniProt O43526); assay: TEVC of KCNQ2 homomers expressed in Xenopus laevis oocytes; assay type: cell-based
Excerpt: as §1, §2

[6] = test system: voltage-gated calcium channel, Cav3.2; design: method as in PMID 29073181; conditions: cited from earlier work
[7] = test system: KCNQ3/5; design: method as in PMID 11159685; conditions: cited from earlier work
[8] = test system: KCNQ2/3 channels; design: method as in PMID 35459955; conditions: cited from earlier work
[9] = 5 µM each substance, table head prints KCNQ3*, text says KCNQ3/5

Sequence of KCNQ3* (KCNQ3-A315T) (O43525 whole entry A315T): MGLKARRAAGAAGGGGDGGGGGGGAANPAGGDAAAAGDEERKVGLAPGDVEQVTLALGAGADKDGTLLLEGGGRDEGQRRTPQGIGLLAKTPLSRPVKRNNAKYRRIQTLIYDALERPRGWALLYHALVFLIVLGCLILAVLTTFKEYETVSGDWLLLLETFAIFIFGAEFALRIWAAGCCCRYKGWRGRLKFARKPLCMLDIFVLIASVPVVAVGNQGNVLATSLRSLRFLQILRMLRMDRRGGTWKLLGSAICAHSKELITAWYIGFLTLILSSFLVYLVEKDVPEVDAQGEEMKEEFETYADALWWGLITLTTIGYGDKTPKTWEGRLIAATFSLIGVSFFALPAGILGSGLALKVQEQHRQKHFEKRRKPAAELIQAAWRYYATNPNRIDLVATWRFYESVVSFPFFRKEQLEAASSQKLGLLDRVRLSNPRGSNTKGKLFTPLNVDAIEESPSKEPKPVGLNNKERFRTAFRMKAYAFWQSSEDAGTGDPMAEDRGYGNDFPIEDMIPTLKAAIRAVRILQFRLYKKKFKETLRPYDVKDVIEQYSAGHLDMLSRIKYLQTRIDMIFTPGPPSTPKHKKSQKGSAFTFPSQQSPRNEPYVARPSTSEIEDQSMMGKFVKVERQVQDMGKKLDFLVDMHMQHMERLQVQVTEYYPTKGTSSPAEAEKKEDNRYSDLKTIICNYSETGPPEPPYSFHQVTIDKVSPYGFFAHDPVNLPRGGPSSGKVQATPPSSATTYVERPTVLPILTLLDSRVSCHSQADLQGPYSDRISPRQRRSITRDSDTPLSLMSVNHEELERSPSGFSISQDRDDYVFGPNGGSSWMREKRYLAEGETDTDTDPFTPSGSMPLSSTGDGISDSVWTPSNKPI

SMILES: C1=C2CCCN[C@H]2[C@@H]2C[C@H]1[C@H]1CCCCN1C2 [Aloperine, aloperine, reference compound]
- Slope [1, 9]: 6.96 ± 0.67 mV
- V0.5 Normalized tail current [1, 9]: -46.72 ± 0.78 mV
- channel opening [2]: weak KCNQ3/5 opener

SMILES: CC(=O)Oc1c(C(C)C)cc2c(c1OC(C)=O)C1(C(=O)O)CCCC(C)(C)C1CC2 (stereo not shown) [Carnosic acid diacetate]
- solubility (highest testable concentration) ([3]; pH 7.6): solubility issues
- Slope ([1]; 10 µM): 5.06 ± 0.63 mV
- V0.5 Normalized tail current ([1]; 10 µM): -50.38 ± 0.69 mV
- shift in V0.5act / opening ([1]; 10 µM): only weakly negative-shifted
- Slope ([4]; 10 µM): 6.11 ± 0.49 mV
- V0.5 Normalized tail current ([4]; 10 µM): -38.43 ± 0.56 mV
- shift in V0.5act / opening ([4]; 10 µM): only weakly negative-shifted

SMILES: CC(C)c1cc2c3c(c1O)OC(=O)C31CCCC(C)(C)C1CC2 (stereo not shown) [Carnosic gamma lactone, carnosic acid γ-lactone]
- solubility (highest testable concentration) ([3]; bath solution): solubility issues
- Slope ([5]; 10 µM): 6.47 ± 0.40 mV
- V0.5 Normalized tail current ([5]; 10 µM): -46.18 ± 0.46 mV
- Slope ([1]; 10 µM): 4.81 ± 0.56 mV
- V0.5 Normalized tail current ([1]; 10 µM): -54.06 ± 0.70 mV
- effect on EM of unclamped oocytes ([1]; 10 µM): without hyperpolarizing
- shift in V0.5act / opening ([1]; 10 µM): −8.7 mV
- Slope ([4]; 10 µM): 6.78 ± 0.62 mV
- V0.5 Normalized tail current ([4]; 10 µM): -40.71 ± 0.71 mV
- effect on EM of unclamped oocytes ([4]; 10 µM): without hyperpolarizing
- shift in V0.5act / opening ([4]; 10 µM): −10 mV

SMILES: CC(C)c1cc2c(c(O)c1O)[C@@]13CCCC(C)(C)[C@@H]1C[C@@H]2OC3=O [Carnosol]
- Slope ([5]; 100 µM): 3.97 ± 1.31 mV
- V0.5 Normalized tail current ([5]; 100 µM): -57.08 ± 1.31 mV
- effect on EM of unclamped oocytes ([5]; 100 µM): did not alter
- Slope ([1]; 100 µM): 5.00 ± 1.11 mV
- V0.5 Normalized tail current ([1]; 100 µM): -61.13 ± 1.28 mV
- shift in V0.5act ([1]; 100 µM): −11 mV
- effect on EM of unclamped oocytes ([1]; 100 µM (hesperidin 30 µM)): did not alter
- Slope ([4]; 100 µM): 5.82 ± 0.75 mV
- V0.5 Normalized tail current ([4]; 100 µM): -47.80 ± 0.87 mV
- effect on EM of unclamped oocytes ([4]; 100 µM): did not alter
- shift in V0.5act ([4]; 100 µM): no shift

SMILES: COc1c(C(C)C)cc2c(c1OC)C13CCCC(C)(C)C1CC2OC3=O (stereo not shown) [Dimethylcarnosol, dimethyl carnosol]
- Slope ([1]; 100 µM): 4.92 ± 0.40 mV
- V0.5 Normalized tail current ([1]; 100 µM): -49.25 ± 0.43 mV
- hyperpolarization of EM ([1]; 100 µM, unclamped oocytes): > 8 mV
- Slope ([4]; 100 µM): 6.71 ± 0.64 mV
- V0.5 Normalized tail current ([4]; 100 µM): -37.81 ± 0.73 mV

SMILES: COc1ccc([C@@H]2CC(=O)c3c(O)cc(O[C@@H]4O[C@H](CO[C@@H]5O[C@@H](C)[C@H](O)[C@@H](O)[C@H]5O)[C@@H](O)[C@H](O)[C@H]4O)cc3O2)cc1O [Hesperidin, hesperidin]
- solubility ([3]; oocyte recording bath solution, pH 7.6, aqueous buffer, read-out: solubility (highest testable concentration)): ≤ 30 µM
- channel opening ([5]; 30 µM): did not open
- Slope ([5]; 100 µM): 6.54 ± 0.41 mV
- V0.5 Normalized tail current ([5]; 100 µM): -45.73 ± 0.48 mV
- Slope ([1]; 30 µM): 4.65 ± 0.46 mV
- V0.5 Normalized tail current ([1]; 30 µM): -55.97 ± 0.57 mV
- V0.5 non-normalized tail current ([1]; 30 µM): -55.83 ± 1.97 mV
- shift in V0.5act ([1]; 30 µM): ~ −10 mV
- effect on EM of unclamped oocytes ([1]; 100 µM (hesperidin 30 µM)): hyperpolarized
- Slope ([4]; 30 µM): 7.73 ± 0.60 mV
- V0.5 Normalized tail current ([4]; 30 µM): -48.08 ± 0.71 mV
- V0.5act shift ([4]; 30 µM): −10.4 mV
- V0.5 non-normalized tail current ([4]; 30 µM): -48.30 ± 2.77 mV
- effect on EM of unclamped oocytes ([4]; 30 µM): hyperpolarized

SMILES: COC(=O)[C@]12CCCC(C)(C)[C@@H]1CCc1cc(C(C)C)c(O)c(O)c12 [Methyl carnosate, methyl carnosate]
- solubility (highest testable concentration) ([3]; pH 7.6): poor solubility
- Slope ([1]; 10 µM): 4.63 ± 0.74 mV
- V0.5 Normalized tail current ([1]; 10 µM): -47.09 ± 0.74 mV
- shift in V0.5act / opening ([1]; 10 µM): only a weak activator
- Slope ([4]; 10 µM): 10.46 ± 0.87 mV
- V0.5 Normalized tail current ([4]; 10 µM): -34.00 ± 0.97 mV
- shift in V0.5act / opening ([4]; 10 µM): did not open

SMILES: CC(C)c1cc2c(cc1O)C1(C(=O)O)CCCC(C)(C)C1CC2 (stereo not shown) [Pisiferic acid, pisiferic acid]
- Slope ([1]; 100 µM): 4.89 ± 0.45 mV
- V0.5 Normalized tail current ([1]; 100 µM): -51.70 ± 0.51 mV
- shift in V0.5act ([1]; 100 µM): only weakly negative-shifted
- Slope ([4]; 100 µM): 7.44 ± 0.55 mV
- V0.5 Normalized tail current ([4]; 100 µM): -42.05 ± 0.63 mV

SMILES: O=C(O)[C@]1(O)C[C@@H](O)[C@@H](O)[C@H](O)C1 [Quinic acid, quinic acid]
- Slope ([1]; 100 µM): 3.96 ± 0.88 mV
- V0.5 Normalized tail current ([1]; 100 µM): -53.04 ± 1.09 mV
- V0.5 non-normalized tail current ([1]; 100 µM): -51.87 ± 2.53 mV
- shift in V0.5act ([1]; 100 µM): ~ −10 mV
- Slope ([4]; 100 µM): 4.07 ± 0.85 mV
- V0.5 Normalized tail current ([4]; 100 µM): -47.87 ± 0.94 mV
- V0.5 non-normalized tail current ([4]; 100 µM): -45.78 ± 1.64 mV

SMILES: O=C(/C=C/c1ccc(O)c(O)c1)O[C@H](Cc1ccc(O)c(O)c1)C(=O)O [Rosmarinic acid]
- Slope ([1]; 100 µM): 4.36 ± 0.60 mV
- V0.5 Normalized tail current ([1]; 100 µM): -49.64 ± 0.84 mV
- V0.5 non-normalized tail current ([1]; 100 µM): -50.09 ± 3.47 mV
- IC50 [6]: 49.9 µM

SMILES: COc1cc(C(=O)O)cc(OC)c1O [Syringic acid]
- Slope ([1]; 100 µM): 4.92 ± 1.03 mV
- V0.5 Normalized tail current ([1]; 100 µM): -49.16 ± 1.21 mV
- V0.5 non-normalized tail current ([1]; 100 µM): -51.58 ± 5.36 mV
- Slope ([4]; 100 µM): 5.13 ± 0.75 mV
- V0.5 Normalized tail current ([4]; 100 µM): -47.76 ± 0.91 mV
- V0.5 non-normalized tail current ([4]; 100 µM): -44.21 ± 2.07 mV

SMILES: C[C@H]1[C@H](C)CC[C@]2(C(=O)O)CC[C@]3(C)C(=CC[C@@H]4[C@@]5(C)CC[C@H](O)C(C)(C)[C@@H]5CC[C@]43C)[C@H]12 [Ursolic acid]
- Slope ([1]; 100 µM): 4.49 ± 0.53 mV

SMILES: CCOC(=O)Nc1ccc(NCc2ccc(F)cc2)cc1N [retigabine]
- shift in V0.5 of KCNQ3/5 activation ([7]; 30 µM): −31.8 mV
- EC50 [7]: 1.4 µM

SMILES: Oc1cc(Cl)ccc1Oc1ccc(Cl)cc1Cl [triclosan]
- EC50 [8]: 32 µM

SMILES: COC[C@H]1OC(=O)c2coc3c2[C@@]1(C)C1=C(C3=O)[C@@H]2CCC(=O)[C@@]2(C)C[C@H]1OC(C)=O [wortmannin, reference compound]
- reduction of KCNQ3* current magnitude ([1]; wortmannin pretreatment to reduce PIP2): ~ fivefold
